Key:
[1] = refractive index (Na D-line) (dimensionless); xn = mol fraction of the nth substance listed; conditions: 101 kPa, Liquid, Standard Abbe refractometry
[2] = xn = mol fraction of the nth substance listed; conditions: 101 kPa, Liquid, Vibrating tube method

C1COCCO1 [1,4-dioxane] + CCCCn1cc[n+](C)c1.F[B-](F)(F)F
Conditions	mass density, [2] [kg/m3]	refractive index, [1]
293.15 K, x2 = 0	1033.57	–
293.15 K, x2 = 0.2559	1118.75	–
293.15 K, x2 = 0.3956	1146.31	–
293.15 K, x2 = 0.4988	1161.37	–
293.15 K, x2 = 0.6	1173.1	–
293.15 K, x2 = 0.7021	1183.04	–
293.15 K, x2 = 0.8993	1198.09	–
298.15 K, x2 = 0	1027.92	1.4205
298.15 K, x2 = 0.2559	1114.31	1.4253
298.15 K, x2 = 0.3956	1142.23	1.4258
298.15 K, x2 = 0.4988	1157.44	1.4256
298.15 K, x2 = 0.6	1169.26	1.4249
298.15 K, x2 = 0.7021	1179.3	1.4241
298.15 K, x2 = 0.8993	1194.53	1.4222
303.15 K, x2 = 0	1022.27	1.4171
303.15 K, x2 = 0.2559	1109.87	1.4236
303.15 K, x2 = 0.3956	1138.14	1.4244
303.15 K, x2 = 0.4988	1153.51	1.4242
303.15 K, x2 = 0.6	1165.45	1.4235
303.15 K, x2 = 0.7021	1175.57	1.4225
303.15 K, x2 = 0.8993	1190.95	1.4207
313.15 K, x2 = 0	1010.91	1.4112
313.15 K, x2 = 0.2559	1101.06	1.4196
313.15 K, x2 = 0.3956	1130.01	1.421
313.15 K, x2 = 0.4988	1145.69	1.4211
313.15 K, x2 = 0.6	1157.84	1.4206
313.15 K, x2 = 0.7021	1168.15	1.4199
313.15 K, x2 = 0.8993	1183.8	1.4183
323.15 K, x2 = 0	999.49	1.4063
323.15 K, x2 = 0.2559	1092.28	1.4161
323.15 K, x2 = 0.3956	1121.91	1.4179
323.15 K, x2 = 0.4988	1137.92	1.4181
323.15 K, x2 = 0.6	1150.29	1.4177
323.15 K, x2 = 0.7021	1160.77	1.4169
323.15 K, x2 = 0.8993	1176.68	1.4155
333.15 K, x2 = 0	987.97	–
333.15 K, x2 = 0.2559	1083.47	–
333.15 K, x2 = 0.3956	1113.85	–
333.15 K, x2 = 0.4988	1130.18	–
333.15 K, x2 = 0.6	1142.79	–
333.15 K, x2 = 0.7021	1153.44	–
333.15 K, x2 = 0.8993	1169.6	–
343.15 K, x2 = 0	976.37	–
343.15 K, x2 = 0.2559	1074.65	–
343.15 K, x2 = 0.3956	1105.8	–
343.15 K, x2 = 0.4988	1122.47	–
343.15 K, x2 = 0.6	1135.31	–
343.15 K, x2 = 0.7021	1146.14	–
343.15 K, x2 = 0.8993	1162.53	–
353.15 K, x2 = 0	964.63	–
353.15 K, x2 = 0.2559	1065.8	–
353.15 K, x2 = 0.3956	1097.77	–
353.15 K, x2 = 0.4988	1114.8	–
353.15 K, x2 = 0.6	1127.87	–
353.15 K, x2 = 0.7021	1138.89	–
353.15 K, x2 = 0.8993	1155.57	–

CCn1cc[n+](C)c1.F[B-](F)(F)F [1-ethyl-3-methylimidazolium tetrafluoroborate] + C1COCCO1
Conditions	mass density, [2] [kg/m3]	refractive index, [1]
293.15 K, x1 = 0.3292	1171.62	–
293.15 K, x1 = 0.4547	1203.47	–
293.15 K, x1 = 0.4923	1211.84	–
293.15 K, x1 = 0.6409	1240.74	–
293.15 K, x1 = 0.6838	1246.89	–
293.15 K, x1 = 0.7851	1263.5	–
293.15 K, x1 = 0.8336	1270.18	–
293.15 K, x1 = 1	1290.63	–
298.15 K, x1 = 0.3292	1167.26	1.4214
298.15 K, x1 = 0.4547	1199.31	1.4197
298.15 K, x1 = 0.4923	1207.73	1.4191
298.15 K, x1 = 0.6409	1236.77	1.4165
298.15 K, x1 = 0.6838	1242.94	1.4157
298.15 K, x1 = 0.7851	1259.61	1.414
298.15 K, x1 = 0.8336	1266.32	1.4132
298.15 K, x1 = 1	1286.82	1.4111
303.15 K, x1 = 0.3292	1163	1.4195
303.15 K, x1 = 0.4547	1195.16	1.4181
303.15 K, x1 = 0.4923	1203.63	1.4176
303.15 K, x1 = 0.6409	1232.79	1.415
303.15 K, x1 = 0.6838	1238.89	1.4143
303.15 K, x1 = 0.7851	1255.72	1.4125
303.15 K, x1 = 0.8336	1262.45	1.4118
303.15 K, x1 = 1	1283.02	1.41
313.15 K, x1 = 0.3292	1154.24	1.4163
313.15 K, x1 = 0.4547	1186.92	1.4154
313.15 K, x1 = 0.4923	1195.48	1.4149
313.15 K, x1 = 0.6409	1224.92	1.4126
313.15 K, x1 = 0.6838	1231.17	1.4118
313.15 K, x1 = 0.7851	1248.01	1.41
313.15 K, x1 = 0.8336	1254.79	1.4092
313.15 K, x1 = 1	1275.45	1.4073
323.15 K, x1 = 0.3292	1145.14	1.4129
323.15 K, x1 = 0.4547	1178.43	1.4123
323.15 K, x1 = 0.4923	1187.38	1.4119
323.15 K, x1 = 0.6409	1217.1	1.4097
323.15 K, x1 = 0.6838	1223.4	1.409
323.15 K, x1 = 0.7851	1240.36	1.4074
323.15 K, x1 = 0.8336	1247.18	1.4067
323.15 K, x1 = 1	1267.97	1.4051
333.15 K, x1 = 0.3292	1136.98	–
333.15 K, x1 = 0.4547	1170.56	–
333.15 K, x1 = 0.4923	1179.33	–
333.15 K, x1 = 0.6409	1209.33	–
333.15 K, x1 = 0.6838	1215.68	–
333.15 K, x1 = 0.7851	1232.77	–
333.15 K, x1 = 0.8336	1239.64	–
333.15 K, x1 = 1	1260.55	–
343.15 K, x1 = 0.3292	1128.37	–
343.15 K, x1 = 0.4547	1162.44	–
343.15 K, x1 = 0.4923	1171.31	–
343.15 K, x1 = 0.6409	1201.62	–
343.15 K, x1 = 0.6838	1208.02	–
343.15 K, x1 = 0.7851	1225.24	–
343.15 K, x1 = 0.8336	1232.15	–
343.15 K, x1 = 1	1253.18	–
353.15 K, x1 = 0.3292	1120.41	–
353.15 K, x1 = 0.4547	1154.35	–
353.15 K, x1 = 0.4923	1163.32	–
353.15 K, x1 = 0.6409	1193.95	–
353.15 K, x1 = 0.6838	1200.41	–
353.15 K, x1 = 0.7851	1217.75	–
353.15 K, x1 = 0.8336	1225.41	–
353.15 K, x1 = 1	1245.87	–
